{"source": "patent US20260027116A1", "about": "“Methods of Treating Chronic Graft-Versus-Host Disease Following Allogeneic Hematopoietic Stem Cell Transplantation” (Kadmon Corporation, LLC, priority 2022, published 2026)", "tested_on": "patients with cGVHD", "details": "Cohort 1 200 mg QD"}
{"smiles": "CC(C)NC(=O)COc1cccc(-c2nc(Nc3ccc4[nH]ncc4c3)c3ccccc3n2)c1", "note": "[Belumosudil, 2-{3-[4-(1H-indazol-5-ylamino)-2-quinazolinyl]phenoxy}-N-(propan-2-yl) acetamide]", "values": [{"measurement": "Rash erythematous: # Events", "result": 0}, {"measurement": "Rash erythematous: Affected/At Risk (%)", "result": "0/17 (0%)"}, {"measurement": "Rash maculo-papular: # Events", "result": 2}, {"measurement": "Rash maculo-papular: Affected/At Risk (%)", "result": "2/17 (11.76%)"}, {"measurement": "Rash pustular: # Events", "result": 0}, {"measurement": "Rash pustular: Affected/At Risk (%)", "result": "0/17 (0%)"}, {"measurement": "Rash: # Events", "result": 2}, {"measurement": "Rash: Affected/At Risk (%)", "result": "1/17 (5.88%)"}, {"measurement": "Red blood cells urine positive: # Events", "result": 0}, {"measurement": "Red blood cells urine positive: Affected/At Risk (%)", "result": "0/17 (0%)"}, {"measurement": "Renal failure: # Events", "result": 0}, {"measurement": "Renal failure: Affected/At Risk (%)", "result": "0/17 (0%)"}, {"measurement": "Respiratory syncytial virus infection: # Events", "result": 0}, {"measurement": "Respiratory syncytial virus infection: Affected/At Risk (%)", "result": "0/17 (0%)"}, {"measurement": "Respiratory tract infection fungal: # Events", "result": 1}, {"measurement": "Respiratory tract infection fungal: Affected/At Risk (%)", "result": "1/17 (5.88%)"}, {"measurement": "Respiratory tract infection: # Events", "result": 1}, {"measurement": "Respiratory tract infection: Affected/At Risk (%)", "result": "1/17 (5.88%)"}, {"measurement": "Restless legs syndrome: # Events", "result": 0}, {"measurement": "Restless legs syndrome: Affected/At Risk (%)", "result": "0/17 (0%)"}, {"measurement": "Rosacea: # Events", "result": 0}, {"measurement": "Rosacea: Affected/At Risk (%)", "result": "0/17 (0%)"}, {"measurement": "SAE, No. (%)", "result": "5 (29)"}, {"measurement": "Sinus pain: # Events", "result": 2}, {"measurement": "Sinus pain: Affected/At Risk (%)", "result": "2/17 (11.76%)"}, {"measurement": "Sinusitis: # Events", "result": 1}, {"measurement": "Sinusitis: Affected/At Risk (%)", "result": "1/17 (5.88%)"}, {"measurement": "Skin abrasion: # Events", "result": 0}, {"measurement": "Skin abrasion: Affected/At Risk (%)", "result": "0/17 (0%)"}, {"measurement": "Skin lesion: # Events", "result": 0}, {"measurement": "Skin lesion: Affected/At Risk (%)", "result": "0/17 (0%)"}, {"measurement": "Skin papilloma: # Events", "result": 1}, {"measurement": "Skin papilloma: Affected/At Risk (%)", "result": "1/17 (5.88%)"}, {"measurement": "Spinal compression fracture: # Events", "result": 1}, {"measurement": "Spinal compression fracture: Affected/At Risk (%)", "result": "1/17 (5.88%)"}, {"measurement": "Squamous cell carcinoma of skin: # Events", "result": 0}, {"measurement": "Squamous cell carcinoma of skin: Affected/At Risk (%)", "result": "0/17 (0%)"}, {"measurement": "Stomatitis: # Events", "result": 2}, {"measurement": "Stomatitis: Affected/At Risk (%)", "result": "1/17 (5.88%)"}, {"measurement": "Superior vena cava syndrome: # Events", "result": 0}, {"measurement": "Superior vena cava syndrome: Affected/At Risk (%)", "result": "0/17 (0%)"}, {"measurement": "TEAE, participants (%)", "result": "17 (100%) participants"}, {"measurement": "TESAE, participants (%)", "result": "5 (29%) participants"}, {"measurement": "Tachycardia: # Events", "result": 0}, {"measurement": "Tachycardia: Affected/At Risk (%)", "result": "0/17 (0%)"}, {"measurement": "Tendonitis: # Events", "result": 0}, {"measurement": "Tendonitis: Affected/At Risk (%)", "result": "0/17 (0%)"}, {"measurement": "Testicular pain: # Events", "result": 1}, {"measurement": "Testicular pain: Affected/At Risk (%)", "result": "1/17 (5.88%)"}, {"measurement": "Testicular swelling: # Events", "result": 1}, {"measurement": "Testicular swelling: Affected/At Risk (%)", "result": "1/17 (5.88%)"}, {"measurement": "Thoracic spinal stenosis: # Events", "result": 1}, {"measurement": "Thoracic spinal stenosis: Affected/At Risk (%)", "result": "1/17 (5.88%)"}, {"measurement": "Thrombocytopenia: # Events", "result": 0}, {"measurement": "Thrombocytopenia: Affected/At Risk (%)", "result": "0/17 (0%)"}, {"measurement": "Thrombocytosis: # Events", "result": 1}, {"measurement": "Thrombocytosis: Affected/At Risk (%)", "result": "1/17 (5.88%)"}, {"measurement": "Tinea pedis: # Events", "result": 0}, {"measurement": "Tinea pedis: Affected/At Risk (%)", "result": "0/17 (0%)"}, {"measurement": "Tooth fracture: # Events", "result": 0}, {"measurement": "Tooth fracture: Affected/At Risk (%)", "result": "0/17 (0%)"}, {"measurement": "Total other adverse events: Affected/At Risk (%)", "result": "17/17 (100%)"}, {"measurement": "Transfusion reaction: # Events", "result": 1}, {"measurement": "Transfusion reaction: Affected/At Risk (%)", "result": "1/17 (5.88%)"}, {"measurement": "Tremor: # Events", "result": 3}, {"measurement": "Tremor: Affected/At Risk (%)", "result": "2/17 (11.76%)"}, {"measurement": "Type 2 diabetes mellitus: # Events", "result": 1}, {"measurement": "Type 2 diabetes mellitus: Affected/At Risk (%)", "result": "1/17 (5.88%)"}, {"measurement": "Ulcerative keratitis: # Events", "result": 0}, {"measurement": "Ulcerative keratitis: Affected/At Risk (%)", "result": "0/17 (0%)"}, {"measurement": "Upper respiratory tract infection: # Events", "result": 16}, {"measurement": "Upper respiratory tract infection: Affected/At Risk (%)", "result": "9/17 (52.94%)"}, {"measurement": "Upper-airway cough syndrome: # Events", "result": 0}, {"measurement": "Upper-airway cough syndrome: Affected/At Risk (%)", "result": "0/17 (0%)"}, {"measurement": "Urinary retention: # Events", "result": 0}, {"measurement": "Urinary retention: Affected/At Risk (%)", "result": "0/17 (0%)"}, {"measurement": "Urinary tract infection: # Events", "result": 0}, {"measurement": "Urinary tract infection: Affected/At Risk (%)", "result": "0/17 (0%)"}, {"measurement": "Urinary tract pain: # Events", "result": 0}, {"measurement": "Urinary tract pain: Affected/At Risk (%)", "result": "0/17 (0%)"}, {"measurement": "Urine output decreased: # Events", "result": 1}, {"measurement": "Urine output decreased: Affected/At Risk (%)", "result": "1/17 (5.88%)"}, {"measurement": "Vascular access complication: # Events", "result": 0}, {"measurement": "Vascular access complication: Affected/At Risk (%)", "result": "0/17 (0%)"}]}
